Earlier results, collected in patent publication US20040048853A1, “Compounds, compositions, and methods” (priority 2002, published 2004).

Tested on: A549 cells
For `CC(=O)O[C@H]1C(=O)[C@@]2(C)[C@H]([C@H](OC(=O)c3ccccc3)[C@]3(O)C[C@H](OC(=O)[C@H](O)[C@@H](NC(=O)c4ccccc4)c4ccccc4)C(C)=C1C3(C)C)[C@]1(OC(C)=O)CO[C@@H]1C[C@@H]2O` [paclitaxel], the GI50 is given as 0.004 µM.
For `COc1cccc2c1C(=O)c1c(O)c3c(c(O)c1C2=O)C[C@@](O)(C(=O)CO)C[C@@H]3O[C@H]1C[C@H](N)[C@H](O)[C@H](C)O1` [doxorubicin], the GI50 is listed as 0.063 µM.
For `O=c1[nH]cc(F)c(=O)[nH]1` [5-fluorouracil], the GI50 is listed as 1 µM.
For `NC(=O)NO` [hydroxyurea], the GI50 is listed as 500 µM.
